Source: patent US9765115B2, “Inhibitors of metastasis, methods of generating such inhibitors and their therapeutic applications” (Board of Supervisors of Louisiana State University acting …, priority 2011, dated 2017)
“Also recorded” adds a separate entry of the source.

Tests used:
CTR-ZO-1 interaction = target: T1, CTR-ZO-1 interaction (Homo sapiens, UniProt P30988); experiment: CTR-ZO-1 co-immunoprecipitation; assay type: cell-based; details: for co-precipitation of ZO-1 by CTRwt: 3 min, PC-3 cells
T1 construct: PCR generated full length CTRwt and CTRΔESS cDNAs were cloned directionally into pcDNA3.1 mammalian expression vector; FLAG (N); expressed in transfected cells; host or cells: PC-31 / PC-3 cells stably expressing FLAG-CTRwt; ZO-1 is the cells' own
T1 sequence (P30988 25-474): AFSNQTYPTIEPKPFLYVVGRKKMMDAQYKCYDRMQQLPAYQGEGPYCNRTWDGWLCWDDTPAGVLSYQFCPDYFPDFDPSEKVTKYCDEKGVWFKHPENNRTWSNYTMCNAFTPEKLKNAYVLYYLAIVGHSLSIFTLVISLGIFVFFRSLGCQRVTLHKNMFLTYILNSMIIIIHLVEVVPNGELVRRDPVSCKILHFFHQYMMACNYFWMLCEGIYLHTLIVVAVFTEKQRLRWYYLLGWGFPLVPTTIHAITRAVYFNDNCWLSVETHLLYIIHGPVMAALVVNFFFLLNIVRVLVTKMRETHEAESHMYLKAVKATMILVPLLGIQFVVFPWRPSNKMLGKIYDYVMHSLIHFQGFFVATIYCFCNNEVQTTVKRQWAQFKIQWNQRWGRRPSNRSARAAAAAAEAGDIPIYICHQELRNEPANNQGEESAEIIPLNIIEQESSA
Description: Serum-starved PC-31-V, PC-31-CTRwt or PC-31-CTRΔESS cells (2×10^6 per 100 mm dish) were stimulated with or without 50 nM CT for 3 min, washed, and lysed in the IP buffer as previously described (von Zastrow et al., 1994). CTR in normalized lysate proteins was immunoprecipitated with anti-FLAG EZ-view beads (Sigma Chemical Co., St. Louis, Mo.), and eluted with FLAG peptide (600 μg/ml in PBS). CTR immunoprecipitates were processed for ZO-1 immunoblotting. To control for protein loading and transfer, the blots were stripped and reprobed with immunoprecipitating antibody.
PC-31 cells stably expressing either FLAG-CTRwt or FLAGCTRΔESS were treated with or without CT for 3 min. The analysis of FLAG-CTR IPs confirmed that only FLAG-CTRwt, but not FLAG-CTRΔESS, co-precipitated ZO-1 (FIG. 3B). […] The effect of multiple CT concentrations on CTR-ZO-1 co-precipitation was tested in PC-3 cells. […] However, co-precipitation of ZO-1 by CTRwt was strong in PC-3 cells stimulated with 10 nM CT, and was even stronger in the cells receiving 100 nM CT.
As shown above, CTR binds to ZO-1 through PDZ interaction (i.e. PDZ ligand on C-tail of CTR binds to the PDZ domain of ZO-1). To attenuate this binding, ZO-1 was saturated with a small C-terminal peptide of CTR sequence containing the PDZ-binding motif. Since ZO-1 is an intracellular membrane protein, the interfering peptide was delivered inside the plasma membrane. It has been shown that trans-activating transcriptional activator (TAT) protein (86-mer polypeptide) from HIV-1 enters mammalian cells when added to the surrounding media (Frankel et al., 1988; Green et al., 1989). Certain small regions of such proteins (10-16-mers) called protein transduction domains (PTDs), also efficiently traverse biological membranes (Elliott et al., 1997). Therefore, a fusion peptide Pep 1 was synthesized of TAT-peptide sequences of HIV virus and CTR-C(N-[…]-C (SEQ ID NO:2), CTR-C sequence underlined). The first experiment was to see if Pep I binds to ZO-1 in reversible fashion. For this, amino acid Y in Pep I was labeled with ^125I, and the binding with ZO-1 analyzed in the presence/absence of unlabeled Pep I (1000×; 20 μM). PC-3CTR-ZO-1-MYC cells were first incubated with unlabeled Pep I or control peptide (20 μM) for 5 min. The cells were then incubated with ^125I-pep I or C for 25 min. The cells were then washed in IP buffer, treated with DSP, and lysed. ZO-1 IPs were obtained, fractionated on SDS-PAGE, and autoradiographed. […] Next, whether Pep I competes with CTR for ZO-1 binding was tested. For this, PC-3-CTR-wt cells were treated with CT (50 nM) and or Pep I (50 μM) for 15 min. The CTR IPs were then immunoblotted and probed for ZO-1 immunoreactivity. […] Next, the biological impact of this phenomenon was examined by testing the effect of Pep I on CTR-stimulated invasion.

[1] = test system: UMUC3, RT4, A2780, OVCAR8 and A549 cancer cell lines; experiment: Transepithelial electric resistance (TER) in other cancer cell lines; assay type: cell-based, human
Description: Cells were plated on Transwell filters (0.4 μm pore size) and grown to confluency in complete medium (RPMI1640 containing 10% fetal bovine serum, 20 mM HEPES and antibiotics). TER of the cultures (in duplicate wells) was measured at several time intervals with EVOM volt-ohm meter as previously described (Shah et al, 2009). The readings were corrected for blank (TER values from the filter in bathing medium). The integrity and cell density of monolayers were carefully monitored.
Next, whether CTR destabilizes tight junctions and increases invasion in these cancers was tested by examining the effect of CT on transepithelial electric resistance (TER), paracellular permeability (PCP) and invasion in cancer cell lines derived from bladder cancer (UMUC3 and RT4), ovarian cancer (A2780 and OVCAR8), and lung cancer (A549). Prostate cancer cell line PC-3CTR was used a reference line. […] This was further confirmed by the actions of CT on PCP (FIG. 26A) and cell invasion (FIG. 26B). […] The role of CT-CTR axis is to destabilize junction complexes and increase invasion in cancers as diverse as prostate, bladder, lung and ovarian cancers.

calcitonin [CT]
co-precipitation of ZO-1 by CTRwt (CTR-ZO-1 interaction; 1 nM CT): barely detectable | co-precipitation of ZO-1 by CTRwt (CTR-ZO-1 interaction; 10 nM CT): strong | co-precipitation of ZO-1 with CTRwt, activated versus dormant (CTR-ZO-1 interaction; CT 50 nM): much more efficiently; also recorded: increased | response to CT ([1]; aggressive cell lines): responded extremely well | response to CT ([1]; well-differentiated lines RT4 and OVCAR8): responded poorly | TER ([1]; with CT, all these cell lines): decreased TER
